The structures appear in SMILES notation.

The target of one experiment is T1, EP1 (Homo sapiens, UniProt P34995).
T1 construct: expressed in transfected cells; host or cells: CHO (EP1-CHO)
T1 sequence (P34995 1-402): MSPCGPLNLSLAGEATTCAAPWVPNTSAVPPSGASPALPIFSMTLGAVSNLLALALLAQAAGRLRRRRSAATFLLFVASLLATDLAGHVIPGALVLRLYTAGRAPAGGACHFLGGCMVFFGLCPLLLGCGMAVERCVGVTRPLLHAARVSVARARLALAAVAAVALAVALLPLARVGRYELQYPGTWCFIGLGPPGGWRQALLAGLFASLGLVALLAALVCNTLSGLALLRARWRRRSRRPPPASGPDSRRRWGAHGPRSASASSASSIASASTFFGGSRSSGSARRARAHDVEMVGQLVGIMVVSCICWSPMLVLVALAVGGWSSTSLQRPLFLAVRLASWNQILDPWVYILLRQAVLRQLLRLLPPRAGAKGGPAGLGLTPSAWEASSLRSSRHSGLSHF
Description: agonist activity on human EP1 receptor (intracellular calcium concentration, EP1-CHO cells). The class given is cell-based. The procedure: Using CHO cells (EP1-CHO, EP2-CHO, EP3-Chem1, EP4-CHO and IP-CHO) on which various human prostanoid receptors were forcibly expressed, the agonist activity of the test compound on the various prostanoid receptors was examined using the intracellular calcium concentration for EP1 and EP3, and the intracellular cyclic AMP (hereinafter, abbreviated as cAMP) production amount for EP2, EP4 and IP as indices.
The test compound and control substances (PGE2 and iloprost) were dissolved in dimethyl sulfoxide (DMSO) to prepare a 10 mmol/L solution. The prepared 10 mmol/L solution was thawed at the time of use, serially diluted using DMSO, and diluted with a buffer solution 1 for measurement (Hank's balanced salt solution (Thermofischer scientific) containing 1 w/v% human serum albumin (Sigma), 2 µmol/L indomethacin (Sigma), 2.5 mmol/L probenecid, and 10 mmol/L HEPES-NaOH (pH7.4)) or a buffer solution 2 for measurement (D-PBS (Nacalai Tesque) containing 0.1 w/v% human serum albumin, 2 µmol/L diclofenac (Sigma), and 1 mmol/L 3-isobutyl-1-methylxanthine (Sigma)) to perform experiments.
The intracellular calcium concentration was measured using Calcium 6 Assay Kit (Molecular Devices). On the day before the measurement, EP1-CHO and EP3-Chem 1 were obtained by thawing the frozen cells, suspended using Ham's F-12 medium (Thermofischer scientific) containing inactivated (56°C, 30 min) 9.8 vol% FBS (Thermofischer scientific) and penicillin-streptomycin (Nacalai Tesque), seeded into a 96 well UV plate to 1.0×10^5 cells per well, and static cultured at 37°C in the presence of 5%CO2. On the day of the measurement, the medium was removed, followed by addition of 120 µL of the Calcium indication solution dissolved in the buffer solution 1 for measurement and incubation at room temperature under light-shielding for about 1 hour. After 1 hour incubation, the 96 well UV plates were set in a fluorescence spectrophotometer (FDSS-7000, Hamamatsu Photonics) to measure the intracellular calcium concentration. Thirty microliters of the buffer solution 1 for measurement containing various concentrations of agonists were added, and the mixture was reacted. The intracellular calcium concentration was measured by irradiating the cells with 480 nm excitation light and measuring the fluorescence intensity at 540 nm.

The next experiment deals with diabetes model rat. The experiment in a line: inhibitory effect on the amount of albumin excreted in urine in diabetes model rat. The class given is in vivo, SDT Fatty rats. The conditions noted are these: urine collected for 24 hours, urine albumin/urine creatinine ratio. The procedure:
Male SDT Fatty rats aged 6 weeks (CLEA Japan) were purchased and preliminarily bred for 1 week or more. Experiments were performed at 8 to 16 weeks of age. The animals were fed ad libitum with solid feed CRF-1 (Oriental Yeast) and watered ad libitum.
Animals were housed in metabolic cages 2 days before test substance administration, and urine was collected for 24 hours. On the day before administration of the test substance, urine albumin and urine creatinine were measured, and grouping was performed by a stratification randomization method based on the urine albumin/urine creatinine ratio (ACR) and the average value of body weights for each group.
The compounds (test substances) of Examples 9-5, 10, 11, 12, 25-7 and 32, and water for injection (Otsuka Pharmaceutical) as a vehicle were orally administered once at 5 mL/kg. The administration dose is described in Table 3.
For evaluation of the amount of albumin excreted in urine of each animal, a urine albumin/urine creatinine ratio (ACR) was measured. After administration of the test substance, the animals were housed in metabolic cages, and urine was collected for 24 hours. Each concentration of urine albumin and urine creatinine was measured using an automatic analyzer 7180 (Hitachi High-Tech), and ACR was calculated by dividing the urine albumin concentration by the urine creatinine concentration.

The subject of experiment [1] is Alport syndrome model mice. The experiment in a line: in vivo drug efficacy in Alport syndrome model mice. Details: species or system COL4A5 homozygote knockout mice. To be noted: Control-4 group: irbesartan (50 mg/kg) orally once a day for 17 weeks; 16 weeks after the start of administration. The procedure: The in vivo drug efficacy of the present compound on Alport syndrome was evaluated using COL4A5 (causative gene of Alport syndrome) knockout mice.
Male wild-type mice and female COL4A5 hetero knockout mice were naturally crossed to obtain offspring. Genotypes of the offspring were confirmed and male COL4A5 homozygote knockout mice were obtained.
The obtained animals were fed ad libitum with CE-2 (CLEA Japan), and watered ad libitum.
The mice were divided into groups using a statistical analysis system EXSUS10.0 so that the body weight and the urine albumin/urine creatinine value at the time of 6 weeks of age were almost uniform in each group.
The test substance and water for injection (Otsuka Pharmaceutical) as a vehicle were orally administered at 10 mL/kg once a day for 17 weeks.
The Control-3 group was orally administered water for injection at 10 mL/kg once a day for 17 weeks. In the Control-4 group, water for injection and an administration solution of irbesartan which is a renin angiotensin system inhibitor were mixed in equal amounts at 5 mL/kg each, and orally administered once a day for 17 weeks.
The administration dose is described in Table 11.
Blood collection was performed by cutting the tail vein of the mice a little with a razor and using a hematocrit capillary. Blood was centrifuged to obtain plasma. Urine was collected for about 16 hours in a metabolic cage for mouse under conditions in which a solid feed and water can be freely taken. The obtained urine sample was centrifuged, and the supernatant was subjected to measurement. Urine albumin (U-ALB) and urine creatinine (U-CRE) concentrations were measured by an automatic analyzer Hitachi 7180 (Hitachi High-Tech), and the creatinine concentration in plasma was measured using LabAssay Creatinine (Fujifilm Wako Shibayagi).

Consider `Cc1c(C(=O)O)ccc2c1O[C@H]1C[C@@H](O)[C@H](/C=C/C(O)C3(c4ccc(F)cc4)CCC3)[C@H]1CC2` (stereo partly drawn) [Example 9-5, (1R,2R,3aS,10aR)-1-{(1E,3ξ)-3-[1-(4-fluorophenyl)cyclobutyl]-3-hydroxy-1-propen-1-yl}-2-hydroxy-5-methyl-2,3,3a,9,10,10a-hexahydro-1H-benzo[b]cyclopenta[f]oxepine-6-carboxylic acid], for which the EC50 at EP1 is above 10 µM. The ACR mean came out at 4691.4 µg/mg with diabetes model rat (0.1 mg/kg orally once) and 4466.2 µg/mg in the experiment on diabetes model rat (0.3 mg/kg orally once).
For `O=C(O)c1ccc2c(c1Cl)O[C@H]1CC[C@H](/C=C/C(O)C3(c4ccccc4)COC3)[C@H]1CC2` (stereo partly drawn) [Example 26-21, (1R,3aS,10aR)-5-chloro-1-[(1E,3ξ)-3-hydroxy-3-(3-phenyl-3-oxetanyl)-1-propen-1-yl]-2,3,3a,9,10,10a-hexahydro-1H-benzo[b]cyclopenta[f]oxepine-6-carboxylic acid], the EC50 on EP1 is above 10 µM.
The same measure, in the same setting: the figure for `O=C(O)c1ccc2c(c1F)O[C@H]1C[C@@H](F)[C@H](/C=C/C(O)C3(c4ccccc4)COC3)[C@H]1CC2` (stereo partly drawn) [Example 28-2, (1R,2R,3aS,10aR)-2,5-difluoro-1-[(1E,3ξ)-3-hydroxy-3-(3-phenyl-3-oxetanyl)-1-propen-1-yl]-2,3,3a,9,10,10a-hexahydro-1H-benzo[b]cyclopenta[f]oxepine-6-carboxylic acid] is above 10 µM.
For `O=C(O)c1ccc2c(c1F)O[C@H]1C[C@@H](Cl)[C@H](/C=C/C(O)C3(c4ccccc4F)COC3)[C@H]1CC2` (stereo partly drawn) [Example 32, (1R,2R,3aS,10aR)-2-chloro-5-fluoro-1-{(1E,3ξ)-3-[3-(2-fluorophenyl)-3-oxetanyl]-3-hydroxy-1-propen-1-yl}-2,3,3a,9,10,10a-hexahydro-1H-benzo[b]cyclopenta[f]oxepine-6-carboxylic acid], the EC50 at EP1 is above 10 µM. The ACR mean in the experiment on diabetes model rat (0.03 mg/kg orally once) is on record as 3391 µg/mg; in the experiment with diabetes model rat (0.1 mg/kg orally once) it was 3086.1 µg/mg.
As for `O=C(O)c1ccc2c(c1F)O[C@H]1C[C@@H](Cl)[C@H](/C=C/C(O)C3(c4ccccc4)CCO3)[C@H]1CC2` (stereo partly drawn) [Example 32-6, (1R,2R,3aS,10aR)-2-chloro-5-fluoro-1-{(1E,3ξ)-3-hydroxy-3-[(2ξ)-2-phenyl-2-oxetanyl]-1-propen-1-yl}-2,3,3a,9,10,10a-hexahydro-1H-benzo[b]cyclopenta[f]oxepine-6-carboxylic acid], the 50% effective concentration (EC50) on EP1 was above 10 µM.
As to `CCCC[C@H](C)C(O)/C=C/[C@H]1OC[C@@H]2Oc3c(ccc(C(=O)O)c3C)CC[C@@H]21` (stereo partly drawn) [Example 41, (1R,3aR,10aR)-1-[(1E,3ξ,4S)-3-hydroxy-4-methyl-1-octen-1-yl]-5-methyl-1,3,3a,9,10,10a-hexahydrofuro[3,4-b][1]benzoxepine-6-carboxylic acid], the 50% effective concentration (EC50) at EP1 was above 10 µM.
Regarding `Cc1c(C(=O)O)ccc2c1O[C@H]1CO[C@H](/C=C/C(O)C3(Oc4ccccc4)CCC3)[C@H]1CC2` (stereo partly drawn) [Example 41-2, (1R,3aR,10aR)-1-[(1E,3ξ)-3-hydroxy-3-(1-phenoxycyclobutyl)-1-propen-1-yl]-5-methyl-1,3,3a,9,10,10a-hexahydrofuro[3,4-b][1]benzoxepine-6-carboxylic acid], on EP1, the half-maximal effective concentration (EC50) is above 10 µM.
Consider `CCCCC1=NC2(CCCC2)C(=O)N1Cc1ccc(-c2ccccc2-c2nnn[nH]2)cc1` [Irbesartan, irbesartan, reference compound], for which, in experiment [1], the Plasma creatinine mean came to 0.771 mg/dL and the “Urine Albumin/ Urine Creatinine Ratio mean” value is 31414.47 mg/g.

The record behind these values is patent EP4682141A1, “TRICYCLIC COMPOUND” (ONO Pharmaceutical Co., Ltd., priority 2023, dated 2024).
